Data on 24 compounds can be found in patent US20240043419A1, “CLASS OF 1,7-NAPHTHYRIDINE COMPOUNDS AND APPLICATION THEREOF” (Medshine Discovery Inc., priority 2020, published 2024).

In data set [1] the test system is tumor cell line LoVo. As to the kind of experiment: in vitro LoVo cell proliferation inhibition assay (CellTiter-Glo cell viability). It is filed as cell-based. As to conditions: Homo sapiens, LoVo cells. As for the experimental part: In this assay, the effect of the compounds on inhibiting cell proliferation was studied by detecting the effect of the compounds on the cell viability in vitro in the tumor cell line LoVo.
Cell viability detection using CellTiter-Glo luminescence assay
The following steps were performed according to the instructions of the Promega CellTiter-Glo Luminescent Cell Viability Detection Kit (Promega-G7573).
(1). A CellTiter-Glo buffer was thawed and allowed to stand to reach room temperature.
(2). A CellTiter-Glo substrate was allowed to stand to reach room temperature.
(3). The CellTiter-Glo buffer was added to the CellTiter-Glo substrate in a bottle to dissolve the substrate to formulate a CellTiter-Glo working solution.
(4). The working solution was vortexed slowly for fully dissolution.
(5). A cell culture plate was taken out and allowed to stand for 30 minutes to equilibrate to room temperature.
(6). 50 μL (equal to half the volume of cell culture solution in each well) of the CellTiter-Glo working solution was added into each well. The cell plate was wrapped with aluminum foil to protect the cell plate from light.
(7). The culture plate was shaken on an orbital shaker for 2 minutes to induce cell lysis.
(8). The culture plate was left at room temperature for 10 minutes to stabilize luminescent signals.
(9). The luminescent signals were detected on a plate reader (SpectraMax i3x of MolecμLar Devices).
The inhibition rate (IR) of the assay compounds was calculated by the following formula:
IR (%)=(1−(RLU of compound−RLU of blank control)/(RLU of vehicle control−RLU of blank control))*100%.
The inhibition rates of different concentrations of compounds were calculated in Excel, and then GraphPad Prism software was used to draw inhibition curves and calculate relevant parameters, including the minimum inhibition rate, maximum inhibition rate, and IC50.
For orientation: ATP-based viability assays read luminescence as a measure of living cells.

For data set [2], the system named is CHK1(p-Ser345). As to the kind of experiment: Assay of CHK1(p-Ser345) in vitro: inhibition of CHK1 phosphorylation in HT29 cells after 4NQO, alpha screen. It counts as cell-based. As to conditions: Homo sapiens, read-out: % Inhibition of CHKI phosphorylation; for inhibition at 0.0002 µM: HT-29, 0.2 nM compound; for inhibition at 0.025 µM: HT-29, 25 nM compound. The method, then: The assay process was as follows: • 1) When cells HT29 grew to about 80% confluence, the cells were digested and plated on a 96-well plate (80,000 cells/well), and 90 ul of cell suspension was added to each well; the cell plate was placed in a 5% carbon dioxide, 37° C. incubator overnight; • 2) The next day, the supernatant was removed from the cell plate, and 90 ul of compounds with different concentrations were added; the plate was incubated at 37° C. for 1 hour, and then 10 ul of 7 uM 4NQO medium was added; the plate was incubated at 37° C. for 1 hour; • 3) After the incubation was completed, the supernatant was removed, and 50 ul/well cell lysate was added; the plate was shaken and incubated at room temperature for 50 minutes; • 4) After the incubation was completed, 8 ul/well cell lysate was transferred to a 384-well detection plate, and 5 ul of Acceptor was added; the plate was incubated at room temperature for 2 hours; • 5) Then 2 ul of Donor was added, and the plate was incubated at room temperature overnight; • 6) After the incubation was completed, alpha screen reading was performed.

A short description of data set [3]: Pharmacokinetics in vivo in mice, single intravenous or single oral administration, plasma LC-MS/MS. As to conditions: mouse, female Balb/c Nude mice. As for the experimental part: The purpose of this assay is to study the pharmacokinetics of the compound of the present disclosure in the plasma of female Balb/c Nude mice after a single intravenous administration or a single oral administration.
In the intravenous group, plasma samples were collected at 9 time points of 5 minutes, 15 minutes, 30 minutes, 1 hour, 2 hours, 4 hours, 6 hours, 8 hours and 24 hours after administration; in the oral group, plasma samples were collected at 8 time points of 15 minutes, 30 minutes, 1 hour, 2 hours, 4 hours, 6 hours, 8 hours and 24 hours after administration; the samples were analyzed by LC-MS/MS for the plasma concentration data of the compound of the present disclosure, and the pharmacokinetic parameters, such as peak concentration, time to peak, clearance rate, half-life, maximum plasma drug concentration, area under the drug-time curve were calculated.

In data set [4] the test system is subcutaneous xenograft tumor of human colorectal cancer LoVo cells. Briefly: In vivo pharmacodynamics on subcutaneous xenograft tumor of human colorectal cancer LoVo cells in BALB/c nude mouse model. Set-up: species or system BALB/c nude mice. Conditions: oral 40 mg/kg, twice a day, 4 days on and 3 days rest per week, 21 days of administration. The method, then:
In this assay, the inhibitory effect of the compound of the present disclosure on the growth of subcutaneous xenograft tumor of human colorectal cancer LoVo cells was studied at an oral dosage of 40 mg/kg, twice a day, with 4 consecutive days of administration and 3 days of rest per week.
Assay method: The selected assay animals (provided by Shanghai Sippe-Bk Lab Animal Co., Ltd.) were BALB/c nude mice, 6-8 weeks old, weighing 18-22 grams.
Human colon cancer LoVo cells were cultured in a single layer in vitro with a culture condition of Ham's F-12 medium plus 10% fetal bovine serum, 100 U/mL penicillin, 100 μg/mL streptomycin and 2 mM glutamine, 37° C., 5% CO2. Cells were routinely digested and passaged with trypsin-EDTA twice a week. When the cell saturation was 80%-90%, the cells were collected, counted and inoculated. 0.1 mL (10×10^6 cells) of LoVo cells were subcutaneously inoculated on the right back of each nude mouse, and the mice were grouped and administered when the average tumor volume reached 146 mm^3. Tumor diameters were measured twice a week with vernier calipers. The calculation formula of tumor volume was: V=0.5 a×b^2, wherein a and b represent the long and short diameters of tumor, respectively.
The antitumor efficacy of the compound was evaluated by TGI (%) or relative tumor proliferation rate T/C (%). TGI (%) reflected the inhibition rate of tumor growth. […]

Take `C[C@@H]1COCCN1c1cc(-c2ccnn2C)c2c(F)cnc(-c3ccn[nH]3)c2n1` [Example 1]: 0.064 µM corresponded to half-maximal inhibition in data set [1] (IC50). In data set [2], the inhibition (as a rule, the drop in the measured response relative to a control, in per cent) at 0.0002 µM turned out to be 10.8% and the inhibition at 0.025 µM worked out at 98%. Also, the clearance in data set [3] (Intravenous injection (1 mg/kg), read-out: Clearance rate) was 13.7 mL/min/kg. Also, the half-life in data set [3] (Intravenous injection (1 mg/kg), read-out: Half-life T1/2 (converted)) is 31.7 min. Besides, the AUC(0-t) in data set [3] (Oral (10 mg/kg), read-out: Area under the drug-time curve AUC0-24 h) was 41.2 µM·h. Moreover, in data set [3] (Oral (10 mg/kg), read-out: Maximum plasma drug concentration Cmax), the Cmax was determined as 23.6 µM. For the same compound, the “TGI (%)” value in data set [4] is 92.4%. For `Cc1cnn(C)c1-c1cc(N2CCOC[C@H]2C)nc2c(-c3ccn[nH]3)ncc(F)c12` [Example 2], in data set [1], the IC50 (commonly the midpoint of a concentration-inhibition curve) worked out at 0.078 µM.

As for `C[C@@H]1COCCN1c1cc(C2(C#N)CCOCC2)c2c(F)cnc(-c3ccn[nH]3)c2n1` [Example 3], the IC50 in data set [1] was 0.061 µM. In data set [2], the inhibition at 0.0002 µM was determined as 4.52% and the inhibition at 0.025 µM is 93.2%.

In data set [1], `C[C@@H]1COCCN1c1cc(-c2cnnn2C)c2c(F)cnc(-c3ccn[nH]3)c2n1` [Example 4] returned an IC50 of 0.141 µM. On the same count and under the same terms, for `C[C@@H]1COCCN1c1cc(-c2ncnn2C)c2c(F)cnc(-c3ccn[nH]3)c2n1` [Example 6] the value was 0.395 µM. `CC(C)Oc1cc(N2CCOC[C@H]2C)nc2c(-c3ccn[nH]3)ncc(F)c12` [Example 8] had an IC50 in data set [1] of 0.181 µM. Moreover, in data set [2], the inhibition at 0.0002 µM came out at 3.79% and the inhibition at 0.025 µM came to 75.9%. In data set [1], `C[C@@H]1COCCN1c1cc(C2CC2)c2c(F)cnc(-c3ccn[nH]3)c2n1` [Example 9] showed an IC50 of 0.089 µM. Same read-out and setting: for `C[C@@H]1COCCN1c1cc(C2=CCOCC2)c2c(F)cnc(-c3ccn[nH]3)c2n1` [Example 10] the value was 0.082 µM; for `C[C@@H]1COCCN1c1cc(C2CCOCC2)c2c(F)cnc(-c3ccn[nH]3)c2n1` [Example 11], 0.059 µM; for `C[C@@H]1COCCN1c1cc(C2(O)CCOCC2)c2c(F)cnc(-c3ccn[nH]3)c2n1` [Example 12], 0.129 µM. `C[C@@H]1COCCN1c1cc(N2CCOCC2)c2c(F)cnc(-c3ccn[nH]3)c2n1` [Example 13]: the IC50 in data set [1] is 0.066 µM. `Cc1nn(C)cc1-c1cc(N2CCOC[C@H]2C)nc2c(-c3ccn[nH]3)ncc(F)c12` [Example 14]: the IC50 in data set [1] turned out to be 0.103 µM. Compared with the last compound, the IC50 is about 1.6-fold higher. As to `Cc1noc(C)c1-c1cc(N2CCOC[C@H]2C)nc2c(-c3ccn[nH]3)ncc(F)c12` [Example 15], the IC50 in data set [1] worked out at 0.182 µM. In the case of `Cc1cc(-c2cc(N3CCOC[C@H]3C)nc3c(-c4ccn[nH]4)ncc(F)c23)n(C)n1` [Example 16], 0.031 µM corresponded to half-maximal inhibition in data set [1] (IC50). Moreover, in data set [2], the inhibition at 0.0002 µM stood at 12.3% and the inhibition at 0.025 µM amounted to 97.5%. Turning to `Cc1n[nH]c(C)c1-c1cc(N2CCOC[C@H]2C)nc2c(-c3ccn[nH]3)ncc(F)c12` [Example 17], in data set [1], the half-inhibitory concentration (IC50) worked out at 0.099 µM.

Compound `Cc1nnn(C)c1-c1cc(N2CCOC[C@H]2C)nc2c(-c3ccn[nH]3)ncc(F)c12` [Example 18] came in with an IC50 in data set [1] of 0.146 µM.

In the case of `Cc1cnccc1-c1cc(N2CCOC[C@H]2C)nc2c(-c3ccn[nH]3)ncc(F)c12` [Example 20], the IC50 in data set [1] worked out at 0.041 µM. For the same compound, in data set [2], the inhibition at 0.0002 µM amounted to 6.34% and the inhibition at 0.025 µM worked out at 95.5%.

For the compound `Cc1ncccc1-c1cc(N2CCOC[C@H]2C)nc2c(-c3ccn[nH]3)ncc(F)c12` [Example 21], in data set [1], the IC50 stood at 0.077 µM. In other words, the double-digit nanomolar range. Regarding `C[C@@H]1COCCN1c1cc(-c2ccncc2F)c2c(F)cnc(-c3ccn[nH]3)c2n1` [Example 22], in data set [1], the IC50 was determined as 0.08 µM. As for `C[C@@H]1COCCN1c1cc(-c2ccc(S(C)(=O)=O)cc2)c2c(F)cnc(-c3ccn[nH]3)c2n1` [Example 23], the 50% inhibitory concentration (IC50) in data set [1] was 0.084 µM. As for `C[C@@H]1COCCN1c1cc(-c2ccnc3[nH]ccc23)c2c(F)cnc(-c3ccn[nH]3)c2n1` [Example 24], in data set [1], the IC50 worked out at 0.059 µM. In data set [2], the inhibition at 0.0002 µM was determined as 9.72% and the inhibition at 0.025 µM stood at 88%. Consider `C[C@@H]1COCCN1c1cc(N2CCC3(CNC3)C2)c2c(F)cnc(-c3ccn[nH]3)c2n1` [Example 27], for which the IC50 in data set [1] was 0.374 µM. In data set [2], the inhibition at 0.0002 µM was determined as 8.45% and the inhibition at 0.025 µM was 78.3%. Turning to `Cn1nccc1-c1cc(N2C3CCC2COC3)nc2c(-c3ccn[nH]3)ncc(F)c12` [Example 28], in data set [1], the IC50 was 0.253 µM. In data set [1], `Cn1nccc1-c1cc(N2CC3CCC(C2)O3)nc2c(-c3ccn[nH]3)ncc(F)c12` [Example 29] yielded an IC50 of 0.475 µM. Also, in data set [2], the inhibition at 0.0002 µM was found to be 5.34% and the inhibition at 0.025 µM was 64.5%.
